A short description of series [1]: in vitro. The following applies: mouse, liver microsomes. Background: Liver microsomes are a subcellular fraction often used to study metabolism.
For series [2] the following is noted: mouse, microsomes, 1 h, 1 µM.
The nature of series [3]: physchem. The conditions noted are these: HCl, pH 2, pH 2.
Series [4] can be described thus: in vitro. The following applies: human, liver microsomes.
Series [5] is described as follows: physchem. The conditions noted are these: PBS, pH 6.5, pH 6.5.
The conditions of series [6]: human, microsomes, 1 h, 1 µM.
A short description of series [7]: in vitro. The conditions noted are these: mouse, liver microsomes. The source holds these as a separate data set.
Series [8] in a line: physchem. The conditions noted are these: octanol/water, pH 7.4.
Series [9] in a line: in vitro. The conditions noted are these: human, liver microsomes. The source holds these as a separate data set.
For series [10] the following is noted: octanol/water, pH 7.4.
The nature of series [11]: in vitro. The following applies: Balb/C, mouse, plasma; at 1 µg/mL.
Series [12] is described as follows: Volume of distribution at steady state in Balb/C mouse plasma at 3.5 mg/kg, iv up to 24 hrs by LC-MS analysis. It is filed as ADME, organism-based. The following applies: read-out: Vdss.
The nature of series [13]: Clearance in Sprague-Dawley rat renal blood at 2.6 mg/kg, iv up to 24 hrs by LC-MS analysis. The conditions noted are these: whole blood. It is filed as ADME, organism-based.
Series [14] is described as follows: Plasma clearance in Sprague-Dawley rat at 2.6 mg/kg, iv up to 24 hrs by LC-MS analysis. It is filed as ADME, organism-based.
The nature of series [15]: AUC(0 to infinity) in Sprague-Dawley rat plasma at 2.6 mg/kg, iv up to 24 hrs by LC-MS analysis. Set-up: route intravenous, dose 2.6 mg/kg, time <=24. Type of series: ADME, organism-based.
The next series is described as follows: cells. The following applies: Homo sapiens, HEK293, 10 min.
The nature of series [16]: Drug excretion in Sprague-Dawley rat urine at 2.6 mg/kg, iv up to 24 hrs by LC-MS analysis. It is filed as ADME, organism-based. The conditions noted are these: read-out: Drug excretion.
The nature of series [17]: Volume of distribution at steady state in Balb/C mouse blood at 3.5 mg/kg, iv up to 24 hrs by LC-MS analysis. It is filed as ADME, organism-based. The conditions noted are these: whole blood, read-out: Vdss.
The next series can be described thus: in vivo. The following applies: Balb/C, mouse, po.
A short description of series [18]: Clearance in Balb/C mouse blood at 3.5 mg/kg, iv up to 24 hrs by LC-MS analysis. It is filed as ADME, organism-based. The following applies: whole blood.
The conditions of series [19]: mouse, blood, 2 h; at 1 µg/mL.
A short description of series [20]: Half life in Sprague-Dawley rat at 2.6 mg/kg, iv up to 24 hrs by LC-MS analysis. The following applies: in vivo. Type of series: ADME, organism-based.
Series [21] addresses Sodium channel protein type 5 subunit alpha (Homo sapiens, UniProt Q14524).
Series [22] can be described thus: Plasma clearance in Balb/C mouse at 3.5 mg/kg, iv up to 24 hrs by LC-MS analysis. Type of series: ADME, organism-based.
The nature of series [23]: in vitro. The conditions noted are these: Balb/C, mouse, plasma; at 1 µg/mL. The source holds these as a separate data set.
A short description of series [24]: AUC(0 to infinity) in Balb/C mouse plasma at 3.5 mg/kg, iv up to 24 hrs by LC-MS analysis. On the set-up: route intravenous, dose 3.5 mg/kg, time <=24. Type of series: ADME, organism-based.
A short description of series [25]: Apparent half life in Balb/C mouse at 3.5 mg/kg, iv up to 24 hrs by LC-MS analysis. The conditions noted are these: in vivo, read-out: t1/2(app) (converted). Type of series: ADME, organism-based.
Series [26] can be described thus: Clearance in Sprague-Dawley rat blood at 2.6 mg/kg, iv up to 24 hrs by LC-MS analysis. It is filed as ADME, organism-based. The conditions noted are these: whole blood.
A short description of series [27]: Volume of distribution at steady state in Sprague-Dawley rat plasma at 2.6 mg/kg, iv up to 24 hrs by LC-MS analysis. Type of series: ADME, organism-based. The following applies: read-out: Vdss.
The nature of series [28]: Volume of distribution at steady state in Sprague-Dawley rat blood at 2.6 mg/kg, iv up to 24 hrs by LC-MS analysis. Type of series: ADME, organism-based. The conditions noted are these: whole blood, read-out: Vdss.

Converted amounts (≈) assume the structure as drawn.

Sequence of Sodium channel protein type 5 subunit alpha (Q14524 whole entry): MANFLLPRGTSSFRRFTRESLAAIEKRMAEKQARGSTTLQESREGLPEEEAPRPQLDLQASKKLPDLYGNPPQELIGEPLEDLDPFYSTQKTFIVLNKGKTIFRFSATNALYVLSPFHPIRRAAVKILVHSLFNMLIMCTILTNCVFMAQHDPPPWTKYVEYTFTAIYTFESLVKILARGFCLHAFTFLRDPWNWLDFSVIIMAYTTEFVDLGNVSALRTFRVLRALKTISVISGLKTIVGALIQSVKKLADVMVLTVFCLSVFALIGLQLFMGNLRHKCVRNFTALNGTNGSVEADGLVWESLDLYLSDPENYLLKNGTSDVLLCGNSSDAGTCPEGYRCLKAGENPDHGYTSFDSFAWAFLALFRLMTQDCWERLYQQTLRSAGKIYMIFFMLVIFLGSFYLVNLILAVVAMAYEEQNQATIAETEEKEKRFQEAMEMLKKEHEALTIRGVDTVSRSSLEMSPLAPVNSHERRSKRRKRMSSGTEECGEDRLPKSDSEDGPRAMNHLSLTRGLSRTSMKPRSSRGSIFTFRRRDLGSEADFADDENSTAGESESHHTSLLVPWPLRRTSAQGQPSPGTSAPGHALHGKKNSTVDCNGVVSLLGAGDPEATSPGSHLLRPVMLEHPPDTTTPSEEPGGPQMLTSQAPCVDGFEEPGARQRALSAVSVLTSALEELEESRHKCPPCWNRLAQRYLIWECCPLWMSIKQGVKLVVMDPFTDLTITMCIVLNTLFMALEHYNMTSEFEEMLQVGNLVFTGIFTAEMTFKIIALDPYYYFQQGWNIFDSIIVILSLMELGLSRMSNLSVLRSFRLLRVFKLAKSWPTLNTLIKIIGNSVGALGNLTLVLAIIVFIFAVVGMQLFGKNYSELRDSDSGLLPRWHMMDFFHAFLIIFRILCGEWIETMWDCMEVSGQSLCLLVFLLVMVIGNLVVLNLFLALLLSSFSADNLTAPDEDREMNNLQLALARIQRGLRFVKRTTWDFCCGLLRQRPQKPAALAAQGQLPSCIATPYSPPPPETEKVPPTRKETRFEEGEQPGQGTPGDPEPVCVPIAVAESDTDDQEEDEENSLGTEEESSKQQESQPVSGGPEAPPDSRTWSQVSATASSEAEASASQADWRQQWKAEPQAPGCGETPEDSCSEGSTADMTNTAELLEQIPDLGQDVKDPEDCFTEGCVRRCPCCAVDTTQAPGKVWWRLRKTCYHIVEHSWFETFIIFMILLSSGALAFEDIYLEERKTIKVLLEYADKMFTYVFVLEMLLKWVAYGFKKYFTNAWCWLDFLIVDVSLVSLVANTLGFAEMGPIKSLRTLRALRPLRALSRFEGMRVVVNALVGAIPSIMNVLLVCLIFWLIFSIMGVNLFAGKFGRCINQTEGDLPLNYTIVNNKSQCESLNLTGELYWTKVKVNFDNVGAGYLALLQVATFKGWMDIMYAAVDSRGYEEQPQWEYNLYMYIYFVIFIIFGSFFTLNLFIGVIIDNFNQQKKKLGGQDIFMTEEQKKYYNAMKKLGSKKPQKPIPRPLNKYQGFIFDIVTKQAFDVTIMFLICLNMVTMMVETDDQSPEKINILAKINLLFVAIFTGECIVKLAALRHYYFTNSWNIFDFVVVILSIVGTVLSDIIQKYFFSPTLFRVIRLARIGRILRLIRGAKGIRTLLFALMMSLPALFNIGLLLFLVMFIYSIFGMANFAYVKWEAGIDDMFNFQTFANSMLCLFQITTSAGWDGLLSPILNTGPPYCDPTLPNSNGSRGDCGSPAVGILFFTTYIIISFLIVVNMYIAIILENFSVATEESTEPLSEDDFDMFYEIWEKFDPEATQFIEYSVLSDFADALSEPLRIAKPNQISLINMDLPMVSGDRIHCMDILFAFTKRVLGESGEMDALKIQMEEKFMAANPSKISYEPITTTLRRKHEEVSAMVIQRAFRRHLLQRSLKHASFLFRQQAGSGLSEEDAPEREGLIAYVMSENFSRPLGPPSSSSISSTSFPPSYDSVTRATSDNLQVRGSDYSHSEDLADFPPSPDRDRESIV

As a reminder, the microsomal CLint is the rate of metabolic loss divided by the concentration. Higher therefore signals faster metabolism. As a reminder, the solubility (kinetic) is the concentration staying in solution when a stock, usually in DMSO, is diluted into the medium. For orientation: logD means the decadic logarithm of the distribution of all forms, ionised or not, between an organic phase and buffer at a given pH. Low readings indicate lower lipophilicity, high ones higher lipophilicity. Consider `N=C(N)NC(=O)c1nc(-c2ccco2)c(N)nc1N`, for which the microsomal CLint at 1 h, 1 µM in the series “in vitro [1]” turned out to be 224 µL/min/mg; in “in vitro [9]”, 50 µL/min/mg. Also, the CL free in series [2] came out at 245 µL/min/mg; in series [6], 55 µL/min/mg. Also, the kinetic solubility is more than 100 µg/mL in “physchem [3]” and 25 µg/mL (≈ 95.7 µM) in “physchem [5]”. Moreover, the half-life at 1 h, 1 µM in “in vitro [4]” was found to be 35 min; in “in vitro [7]”, 7.7 min. The compound further showed a logD in the series “physchem [8]” of 1.4.
As to `N=C(N)NC(=O)c1nc(-c2cc3ccccc3s2)c(N2CCCCCC2)nc1N`, the microsomal CLint at 1 h, 1 µM in “in vitro [1]” came out at 83 µL/min/mg; in the series “in vitro [9]”, 28 µL/min/mg. The CL free worked out at 1283 µL/min/mg in [2] and 433 µL/min/mg in [6]. Moreover, the kinetic solubility in “physchem [3]” was determined as 12.5 µg/mL (≈ 30.5 µM); in “physchem [5]” it was 3.1 µg/mL (≈ 7.57 µM). Further, the figures for the half-life at 1 h, 1 µM in the series “in vitro [4]” and in the series “in vitro [7]” were 62 min and 21 min, respectively. Further, the logD in the series “physchem [8]” is more than 5.3.
Turning to `N=C(N)NC(=O)c1nc(-c2ccc(C(F)(F)F)cc2)c(N)nc1N`, the microsomal CLint at 1 h, 1 µM in “in vitro [1]” is 11 µL/min/mg; in “in vitro [9]” it was less than 7 µL/min/mg. Also, the CL free in [2] was found to be 17 µL/min/mg; in series [6] it was 11 µL/min/mg. The solubility (kinetic) in the series “physchem [3]” was more than 100 µg/mL; in “physchem [5]”, 50 µg/mL (≈ 147 µM). Further, the half-life at 1 h, 1 µM is more than 255 min in “in vitro [4]” and 153 min in the series “in vitro [7]”. In the series “physchem [8]”, this compound yielded a logD of 2.8.
Regarding `N=C(N)NC(=O)c1nc(-c2ccco2)c(N2CCCCCC2)nc1N`, the microsomal CLint at 1 h, 1 µM in the series “in vitro [1]” was 138 µL/min/mg; in “in vitro [9]”, 35 µL/min/mg. Besides, the CL free in series [2] and in series [6] was 687 µL/min/mg each time. For the same compound, the kinetic solubility in “physchem [3]” worked out at 50 µg/mL (≈ 146 µM); in “physchem [5]”, 6.3 µg/mL (≈ 18.3 µM). Further, the half-life at 1 h, 1 µM in the series “in vitro [4]” is 50 min; in the series “in vitro [7]” it was 13 min.
`N=C(N)NC(=O)c1nc(-c2cncnc2)c(N2CCCCCC2)nc1N`: the microsomal CLint at 1 h, 1 µM in “in vitro [1]” is 17 µL/min/mg; in “in vitro [9]” it was 20 µL/min/mg. Besides, the CL free in series [2] amounted to 27 µL/min/mg; in [6], 32 µL/min/mg. Besides, the values for the solubility (kinetic) in the series “physchem [3]” and in the series “physchem [5]” were more than 100 µg/mL and 12.5 µg/mL (≈ 35.2 µM), respectively. In addition, the half-life at 1 h, 1 µM in the series “in vitro [4]” worked out at 86 min; in the series “in vitro [7]”, 100 min. The compound further gave a pH-dependent lipophilicity (logD) in [10] of 2.8.
One may read the clearance as a measure of how efficiently the substance is removed, as volume per time. Read a high clearance as efficient removal. A word on the AUC(0-inf): it is total exposure, with the tail of the curve extrapolated. The low end stands for less exposure, the high end for more exposure. For orientation: IC50 means the concentration that gives 50% inhibition. High values mean lower potency, low ones higher potency. What is called bioavailability is the share of a dose that reaches the circulation, judged against a reference dose that is usually intravenous. Low readings indicate little systemic uptake, high ones much systemic uptake. As usually defined, the fraction unbound is free concentration divided by total concentration. Low values mean extensive binding, high ones weak binding. In the case of `N=C(N)NC(=O)c1nc(-c2cc3ccccc3o2)c(N)nc1N`, the microsomal CLint at 1 h, 1 µM turned out to be 106 µL/min/mg in the series “in vitro [1]” and 53 µL/min/mg in “in vitro [9]”. Also, in the series “in vitro [11]”, the metabolised at 4 h, 1 ug/ml is less than 6%. Besides, the Vd in series [12] came out at 4.1 L/kg; in series [17], 2.2 L/kg; in series [27] it was 17.5 L/kg; in series [28], 8.9 L/kg. Moreover, the CL renal at 24 h in series [13] was determined as 5.6 mL/min/kg. Also, the clearance in [14] stood at 87.7 mL/min/kg; in series [18] it was 60 mL/min/kg; in series [22], 114 mL/min/kg; in [26], 44.7 mL/min/kg. The AUC(0-inf) in series [15] and in series [24] was 1.6 µM·h in each case. Also, the CL free is 167 µL/min/mg in series [2] and 84 µL/min/mg in series [6]. The half-life at 1 h, 1 µM in “in vitro [4]” is 33 min; in “in vitro [7]” it was 16 min. For the same compound, the IC50 (in the series “cells”; in series [21]) was 22 µM throughout. Also, the dose excreted at 24 h in series [16] is 12.5%. In addition, in “in vivo”, the bioavailability at 24 h is less than 5%. Besides, the Stabilty entry in series [19] is “Unstable”. The half-life in [20] was 294 min; in [25] it was 43.8 min. The fraction unbound at […], 1 ug/ml in the series “in vitro [23]” was 0.06.

Values taken from ChEMBL document CHEMBL4732263 (Bioorg Med Chem, 2021).
